Square brackets hold non-standard residues; d marks the D form. Peptide text beside a SMILES is read from it. dMet(O) = CS(=O)CC[C@@H](N)C(=O)O; Phe(ol) = N[C@H](CO)Cc1ccccc1

Test [1] deals with Rat osteoblast-like cells (ROS 17/2.8). Put plainly: [3H]-thymidine incorporation, proliferation of osteoblast-like cells. In kind it is cell-based. Particulars: ROS 17/2.8, 18 hrs incubation, 2 hrs pulse. The text has this: Stimulation of osteoblast-like cell proliferation can be measured according to several art-recognized in vitro models. One such model is described in European Patent Publication No. 384,731, by Rodan et al, published Aug. 29, 1990, which is incorporated herein by reference. (Applicants have modified this method by reducing regent volumes to one-quarter those described and by utilizing Dulbecco's Modified eagle's Medium (DMEM).) In this model, proliferation (division) of, for example, rat osteoblast-like cells (rat osteosarcoma (ROS) cells, rat calvaria cells, etc.) is observed by measuring the amount of radiolabeled thymidine ([^3 H]thymidine) incorporated by these cells. ([^3 H]thymidine is "incorporated" by cellular DNA being synthesized as a result of cell proliferation.) The greater the level of [^3 H]thymidine measured, the greater the amount of proliferation of the osteoblast cells.
More specifically, a test sample (comprised of a test compound and osteoblast-like cells) and a control sample (comprised of only osteoblast-like cells) are pulsed with [^3 H]thymidine. The amount of [^3 H]thymidine incorporated by the cells is measured using a direct beta counter.
Rat osteoblast-like cells (ROS 17/2.8) are plated at 4×10^3 cells/well in a 96-well plate in Dulbecco's Modified eagle's Medium supplemented with 2% (v/v) Fetal Bovine Serum, and incubated for 6 hrs. Control (serum-free) medium and test medium (test sample and serum-free medium) are then added to the cells and this combination is incubated for 18 hrs. The cells are then pulsed with [^3 H]-thymidine (1 μCi/well) for 2 hrs. The medium is then removed, the cells are harvested onto glass fibre filters and the amount of [^3 H]-thymidine (counts per minute per well) incorporated into DNA is then determined using a direct beta counter. Values for control groups are then compared to values for treated groups.
The compound H-Tyr-D-Ala-Gly-Phe-D-Leu-OH ("DADLE") is screened to determine whether it stimulates proliferation of osteoblast-like cells. […] The medium is then removed, the cells are harvested onto glass fibre filters, and the amount of ^3 H-thymidine (counts per minute per well) incorporated into DNA is determined using a direct beta counter. […]
The compound Tyr-D-Cys(S-t-butylthioether)-Gly-Phe-Leu-Thr(O-t-butylether) ("BUBUC") is screened to determine whether it stimulates proliferation of osteoblast-like cells. […] The medium is then removed, the cells are harvested onto glass fibre filters, and the amount of ^3 H-thymidine (counts per minute per well) incorporated into DNA is determined using a direct beta counter. […]

The next test has as its target mu opioid receptor (Cavia porcellus, UniProt A0ACM8Q262). The experiment in a line: inhibition of [3H]DAGO binding, method of Goldstein et al. Also on record: species or system guinea pig. The conditions noted are these: radioligand [3H]DAGO. An excerpt:
Affinity for mu opioid receptors can be measured by any of several art-recognized in vitro models. One such model is described by A. Goldstein et al., "Multiple Opioid Receptors: Ligand Selectivity Profiles and Binding Site Signatures", 36 […] 265-272 (1989), which is incorporated herein by reference. According to this model, a test compound is screened for its ability to inhibit binding of a mu-selective radiolabeled ligand ("mu-selective radiolabeled ligand" refers to a radiolabeled compound that is known to have selective affinity for mu opioid receptors) to mu opioid receptor binding sites. More specifically, this in vitro model compares test samples (comprising a mu-selective radiolabeled ligand ("hot ligand"); the non-radiolabeled equivalent to the "hot ligand" ("cold ligand"); test compound at varying concentrations in each test sample; and mu opiate receptor material) and a control sample (comprising hot ligand; cold ligand; and mu opiate receptor material).
Following the protocol set forth by Goldstein et al., the samples are assayed for relative radioactivity.
In assessing a compound's in vitro affinity for mu opioid receptors according the method described by Goldstein et al., the mu-selective radiolabeled ligand (i.e., "hot ligand") is preferrably [^3 H]Tyr-D-Ala-Gly-N-methyl-Phe-Gly(ol) ("[^3 ]DAGO" or "hot DAGO"). […]

Test [2] deals with human subject with postmenopausal osteoporosis or low bone mass. The experiment in a line: treatment of human subject with osteoporosis, vertebral density by dual-energy photon absorptiometry. In kind it is in vivo. The conditions noted are these: 30 mg intravenously daily (substitutes at comparable levels), 28 days active / 28 days calcium, two years. The procedure:
A human subject weighing about 60 kg (132 lbs), suffering from postmenopausal osteoporosis, is treated by a method of this invention. Specifically, for two years, the enkephalin-degrading enzyme inhibitor DL-3-mercapto-2-benzylpropanoylglycine is administered orally, in a cyclical regimen, where each cycle consists of an active period of 28 days during which a tablet containing 160 mg of said inhibitor is administered each day, followed by a non-active period of 28 days during which the subject receives a daily supplement of calcium (1,000 mg/day), with repeat of cycle.
A human subject weighing about 60 kg (132 lbs), suffering from postmenopausal osteoporosis, is treated by a method of this invention. Specifically, for two years, the compound H-Tyr-D-Ala-Gly-Phe-D-Leu-OH ("DADLE") is administered to the subject, in a cyclical regimen, where each cycle consists of an active period of 28 days during which a solution containing 30 mg of DADLE is administered intravenously every day, followed by a non-active period of 28 days during which the patient receives a daily supplement of calcium (1,000 mg/day), with repeat of cycle.
A human subject weighing about 60 kg (132 lbs), suffering from postmenopausal osteoporosis, is treated by a method of this invention. Specifically, for two years, an enkephalin of the formula Tyr-D-Cys(S-t-butylthioether)-Gly-Phe-Leu-Thr(O-t-butylether) ("BUBUC") is administered to the subject, in a cyclical regimen, where each cycle consists of an active period of 28 days during which a solution containing 30 mg of BUBUC is intravenously administered each day, followed by a non-active period of 28 days during which the patient receives a daily supplement of calcium (1,000 mg/day), with repeat of cycle.
A human subject weighing about 60 kg (132 lbs), suffering from postmenopausal osteoporosis, is treated by a method of this invention. Specifically, for two years, the enkephalin secretagogue Tyr-Arg^1, is administered to the subject, in a cyclical regimen, where each cycle consists of an active period of 28 days during which a solution containing 30 mg of Tyr-Arg is intravenously administered each day, followed by a non-active period of 28 days during which the subject receives a daily supplement of calcium (1,000 mg/day), with repeat of cycle. […]
A human subject weighing about 60 kg (132 lbs), suffering from postmenopausal osteoporosis, is treated by a method of this invention. Specifically, each day for five years, the subject is administered 3 tablets, comprised as follows.
A human subject weighing about 60 kg (132 lbs) is evaluated approximately four years after spontaneous menopause, and is found to have low bone mass. The subject is then treated by a method of this invention to treat osteoporosis. Specifically, once each month for five years, the subject is administered, via intravenous injection, 5 ml of a solution comprised as follows.

mu opioid receptor, sequence (A0ACM8Q262 1-400): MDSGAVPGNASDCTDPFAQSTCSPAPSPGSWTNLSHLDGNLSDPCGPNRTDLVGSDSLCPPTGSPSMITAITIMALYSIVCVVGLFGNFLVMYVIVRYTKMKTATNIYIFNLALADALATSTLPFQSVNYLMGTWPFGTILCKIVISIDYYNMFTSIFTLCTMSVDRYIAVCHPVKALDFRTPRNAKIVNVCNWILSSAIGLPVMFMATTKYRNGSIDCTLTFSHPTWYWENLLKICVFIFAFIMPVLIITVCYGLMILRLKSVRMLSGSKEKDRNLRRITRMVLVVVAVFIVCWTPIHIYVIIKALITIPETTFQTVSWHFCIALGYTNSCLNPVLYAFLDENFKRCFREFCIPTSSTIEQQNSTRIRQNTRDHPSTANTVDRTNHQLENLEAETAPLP

On to `CC(C)C[C@@H](NC(=O)[C@H](Cc1ccccc1)NC(=O)CNC(=O)[C@@H](C)NC(=O)[C@@H](N)Cc1ccc(O)cc1)C(=O)O` [DADLE, H-Tyr-D-Ala-Gly-Phe-D-Leu-OH], for which the “[3H]-thymidine incorporation (proliferation) vs control” value in test [1] is “significantly stimulated proliferation of the osteoblast-like cells”. Also, at mu opioid receptor, the “in vitro mu opioid receptor affinity (IC50 ≤1000 times the IC50 of non-radiolabeled DAGO)” value is on record as “significant in vitro mu opioid receptor affinity”. The results for the “density of vertebrae / bone mass” value in test [2] and in test [2] (listed as H-Tyr-D-Ala-Gly-Phe-D-Leu) were “an increase in bone mass” and “substantially similar results”, respectively.

Turning to `C[C@@H](NC(=O)[C@@H](N)Cc1ccc(O)cc1)C(=O)NCC(=O)N(C)[C@@H](Cc1ccccc1)C(=O)N[C@H](CO)CC[S+](C)[O-]` (stereo partly drawn) [H-Tyr-D-Ala-Gly-N-methyl-Phe-Met(sulfoxide)(ol)], the “density of vertebrae / bone mass” value in test [2] is reported as “substantially similar results”.

For the compound `CC(C)C[C@H](NC(=O)[C@H](Cc1ccccc1)NC(=O)CNC(=O)[C@@H](C)NC(=O)[C@@H](N)Cc1ccc(O)cc1)C(N)=O` [H-Tyr-D-Ala-Gly-Phe-Leu-NH2], in test [2], the “density of vertebrae / bone mass” value is listed as “substantially similar results”.

In the case of `CSCC[C@H](NC(=O)[C@H](Cc1ccccc1)NC(=O)CNC(=O)[C@@H](C)NC(=O)[C@@H](N)Cc1ccc(O)cc1)C(N)=O` [H-Tyr-D-Ala-Gly-Phe-Met-NH2], the “density of vertebrae / bone mass” value in test [2] is “substantially similar results”.

As for `CSCC[C@H](NC(=O)[C@H](Cc1ccccc1)NC(=O)[C@@H](C)NC(=O)[C@@H](N)Cc1ccc(O)cc1)C(N)=O` [H-Tyr-D-Ala-Phe-Met-NH2] (H-Y[dA]FM-NH2), the “density of vertebrae / bone mass” value in test [2] was “substantially similar results”.

For the compound `C[S+]([O-])CC[C@@H](NC(=O)[C@@H](N)Cc1ccc(O)cc1)C(=O)NCC(=O)N[C@H](CO)Cc1ccccc1` (stereo partly drawn) [H-Tyr-D-Met(O)-Gly-Phe(ol)] (H-Y[dMet(O)]G[Phe(ol)]), in test [2], the “density of vertebrae / bone mass” value was “substantially similar results”.

In the case of `CSCC[C@@H](NC(=O)[C@@H](N)Cc1ccc(O)cc1)C(=O)NCC(=O)N[C@@H](Cc1ccccc1)C(=O)N1CCC[C@H]1C(N)=O` [H-Tyr-D-Met-Gly-Phe-Pro-NH2] (H-Y[dM]GFP-NH2), the “density of vertebrae / bone mass” value in test [2] was “substantially similar results”.

With `CC(C)C[C@H](NC(=O)[C@H](Cc1ccccc1)NC(=O)CNC(=O)[C@@H](COC(C)(C)C)NC(=O)[C@@H](N)Cc1ccc(O)cc1)C(=O)N[C@H](C(=O)O)[C@@H](C)OC(C)(C)C` [H-Tyr-D-Ser(O-t-butylether)-Gly-Phe-Leu-Thr(O-t-butylether)], the “density of vertebrae / bone mass” value in test [2] is “substantially similar results”.

Consider `CC(C)C[C@H](NC(=O)[C@H](Cc1ccccc1)NC(=O)CNC(=O)[C@@H](COC(C)(C)C)NC(=O)[C@@H](N)Cc1ccc(O)cc1)C(=O)N[C@H](C(=O)O)[C@@H](C)O` [H-Tyr-D-Ser(O-t-butylether)-Gly-Phe-Leu-Thr], for which the “density of vertebrae / bone mass” value in test [2] is on record as “substantially similar results”.

Regarding “H-(2,6-dimethyl-Try)-D-Ala-NH-phenylpropyl”, the “density of vertebrae / bone mass” value in test [2] is reported as “substantially similar results”.

Regarding H-Tyr-D-Pen-Gly-Phe-Pen, in test [2], the “density of vertebrae / bone mass” value was “substantially similar results”.

For the origin of these results see patent US5403824A, “Methods for the treatment of osteoporosis” (The Procter & Gamble Company, priority 1993, dated 1995).
